Source: PubChem BioAssay (NCI)
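Cells were grown in 96-well plates and exposed to each compound for 48 hours at five concentrations; endpoints were interpolated linearly between bracketing concentrations, or set to the highest concentration if not reached. The concentration for 50% growth inhibition is given as GI50. Definition used: TGI = concentration required for complete inhibition of growth.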

Assays:
Test in all cases: inhibition of tumour cell growth, NCI panel, 48 h
[1] = tested on: UO-31 renal
[2] = tested on: SK-OV-3 ovarian
[3] = tested on: CAKI-1 renal
[4] = tested on: OVCAR-8 ovarian
[5] = tested on: NCI-H23 lung
[6] = tested on: LOX IMVI melanoma
[7] = tested on: OVCAR-3 ovarian
[8] = tested on: SK-MEL-28 melanoma
[9] = tested on: SNB-19 CNS
[10] = tested on: SR leukemia

| Structure (SMILES) | GI50 [1] [µM] | TGI [1] [µM] | GI50 [2] [µM] | TGI [2] [µM] | GI50 [3] [µM] | GI50 [4] [µM] | TGI [4] [µM] | GI50 [5] [µM] | TGI [5] [µM] | GI50 [6] [µM] | TGI [6] [µM] | GI50 [7] [µM] | TGI [7] [µM] | GI50 [8] [µM] | TGI [8] [µM] | GI50 [9] [µM] | TGI [9] [µM] | TGI [3] [µM] | TGI [10] [µM] | GI50 [10] [µM] |
| --- | --- | --- | --- | --- | --- | --- | --- | --- | --- | --- | --- | --- | --- | --- | --- | --- | --- | --- | --- | --- |
| O=C(/C=C/c1ccc([N+](=O)[O-])o1)NNC(=O)c1cc2ccccc2cc1O | 1.2 | 3.78 | 4.23 | > 100 | 1.04 | 1.11 | 20.1 | 1.05 | 5.03 | 0.395 | 1.98 | 0.967 | > 21 | 0.596 | 2.21 | 4.6 | > 100 |  |  |  |
| COc1cccc2c(=O)c3c(sc12)c(NCCCN)nc1ccccc13 | 0.832 | 2.18 |  |  | 1.48 |  |  | 1.56 | 2.99 | 1.3 | 2.68 | 1.41 | 2.91 | 1.87 | 3.36 | 1.61 | 3.04 | 2.82 |  |  |
| Cn1nnnc1[N-]Cc1ccccc1.[Au+].c1ccc([PH+](c2ccccc2)c2ccccc2)cc1 | 13 | 25.7 | 16.6 | 30.3 | 2.29 | 3.13 | 10.1 | 3.35 | 10.4 | 2.53 | 8.55 | 2.47 | 5.2 | 2.53 | 7.23 | 3.61 | 13.1 | 4.99 |  |  |
| Cc1ccc(S(=O)(=O)ON/N=C2/C3OC3[C@@H]3CCCC[C@H]23)cc1 (some centres undefined) |  | > 100 |  |  |  |  | > 100 |  | > 100 |  |  |  | > 100 |  | > 100 |  | > 100 | > 100 | > 100 |  |
| COC1C(=O)CCC2(CO2)C1(O)C1(C)OC1CCC(C)C (centres undefined) |  | > 100 |  | > 100 |  |  | > 100 |  | > 100 |  |  |  | > 100 |  | > 100 |  | > 100 | > 100 | > 100 |  |
| O=C(O)c1[nH]c(C(=O)O)c(CC(F)(F)C(F)(F)C(F)(F)F)c1CC(F)(F)C(F)(F)C(F)(F)F |  | > 100 |  | > 100 |  |  | > 100 |  | > 100 |  | > 100 |  | > 100 |  | > 100 |  | > 100 | > 100 |  |  |
| CC1(C)OC2C(=O)OC(COCc3ccccc3)C2O1 (centres undefined) |  | > 100 |  |  |  |  | > 100 |  | > 100 |  | > 100 |  | > 100 |  | > 100 |  |  | > 100 | > 100 |  |
| C=C1C(O)C2C(=C(CC(C)C)C13CC3)C(=O)C(C)(C)C2OC (centres undefined) | > 100 | > 100 | > 100 | > 100 |  | > 100 | > 100 | > 100 | > 100 | > 100 | > 100 | > 100 | > 100 | > 100 | > 100 | > 100 | > 100 |  | > 100 | 82.9 |
| Cn1cc(NC(=O)c2cc(NC(=O)CCCCCC(=O)Nc3cc(C(=O)Nc4cc(C(=O)NCCC(=N)N)n(C)c4)n(C)c3)cn2C)cc1C(=O)NCCC(=N)N |  | > 100 |  | > 100 |  |  | > 100 |  | > 100 |  | > 100 |  | > 100 |  | > 100 |  | > 100 | > 100 |  |  |
| Cc1ccc(C)c(NC(=O)/C(=N\NC(N)=S)C(C#N)c2ccccc2)c1 (centres undefined) |  | > 100 |  | > 100 |  |  | > 100 |  | > 100 |  |  |  | > 100 |  | > 100 |  | > 100 | > 100 | > 100 |  |
| CN(C)CCNC(=O)c1cc([N+](=O)[O-])cc2ccc(-c3ccccc3)nc12 |  | 11.2 |  | 25.5 |  |  | > 39.2 |  | 27.6 |  | 30.5 |  | 54.3 |  | 27.4 |  | 35.5 | > 40.4 |  |  |
| Cc1cc(O)cc(C)c1/C=C/c1cncc(C(=O)N(C)C)c1 | > 25 | > 25 | > 25 | > 25 | > 25 | > 25 | > 25 | > 25 | > 25 | > 25 | > 25 | > 25 | > 25 | > 25 | > 25 | > 25 | > 25 | > 25 |  |  |
| COc1ccc(/C=[N+](\[O-])[C@H](COCc2ccccc2)c2ccccc2)cc1 |  | > 100 |  | > 100 |  |  | > 100 |  | > 100 |  | > 100 |  | > 100 |  | > 100 |  | > 100 |  |  |  |
| c1cc2c(cnc3cscc32)s1 |  | > 100 |  |  |  |  | > 100 |  | > 100 |  | > 100 |  | > 100 |  | > 100 |  | > 100 | > 100 | > 100 |  |
| Cc1c2ncccc2c(C)c2c1[nH]c1ccccc12 |  |  |  | 31.3 |  |  | 27.8 |  | 26 |  | 20.8 |  | 28.3 |  | 28.9 |  | 26.7 | 22 |  |  |
| C=C1C(=O)O[C@H]2[C@H]1CC/C(COC(=O)c1ccc(C(=O)O)s1)=C\CC[C@@]1(C)O[C@@H]21 | 1.4 | 3.04 | 12.3 | 25.1 | 1.71 | 2.69 | 7.84 | 3.34 | 11.8 | 1.49 | 3.08 | 1.43 | 2.98 | 2.1 | 4.83 | 3.17 | 11.6 | 3.11 |  |  |
| OC1CCC(C2C3CCCCC3C3CCCCC3C2C2CCC(O)CC2)CC1 (centres undefined) |  | 36.5 |  | 31 |  |  | 20.4 |  | > 100 |  |  |  | > 100 |  | 9.59 |  | 32.2 | 13 | > 100 |  |
| COc1cc2ccc3c4cc(OC)c(OCc5ccccc5)cc4cnc3c2cc1OC |  | > 100 |  | > 100 |  |  | > 100 |  | > 100 |  |  |  | > 100 |  | > 100 |  |  | > 100 |  |  |
| C=CCN(N=O)C(=O)N(CCC)CCCC(NC(C)=O)C(=O)NCc1ccccc1 (centres undefined) |  | > 100 |  | > 100 |  |  | > 100 |  | > 100 |  | > 100 |  | > 100 |  | > 100 |  | > 100 | > 100 |  |  |
